Results taken from US6737383B1, “Herbicidal oxadiazolidines” (priority 1999, dated 2004).

Experiments:
Alexandergrass = experiment: Test D Alexandergrass; type: in vivo, Brachiaria plantaginea; conditions: Preemergence, 0 to 100 scale
Description: (§1) Seeds, tubers, or plant parts of Alexandergrass (Brachiaria plantaginea), bermuda-grass (Cynodon dactylon), common pursiane (Portulaca oleracea), common ragweed (Ambrosia elatior), common groundsel (Senecio vulgaris), dallisgrass (Paspalum dilatatum), goosegrass (Eleusine indica), guineagrass (Panicum maximum), itchgrass (Rottboellia exaltata), Johnson grass (Sorghum halepense), large crabgrass (Digitaria sanguinalis), pitted morningglory (Ipomoea lacunosa), purple nutsedge (Cyperus rotundus), sandbur (Cenchrus echinatus), sourgrass (Trichachne insularis), Spanishneedles (Bidens bipinnata), surinam grass (Brachiaria decumbens) and tall mallow (Malva sylvestris) were planted into greenhouse pots of flats containing greenhouse planting medium. Plant species were grown in separate pots or individual compartments. Preemergence applications were made within one day of planting the seed or plant part.
(§2) Test chemicals were formulated in a non-phytotoxic solvent mixture which included a surfactant and applied preemergence to the surface of the pot containing seeds in a sandy loam soil. Untreated control pots and treated pots were placed in the greenhouse for growth and visually evaluated for injury 14 to 21 days after herbicide application. Plant response ratings, summarized in Table C, are based on a 0 to 100 scale where 0 is no injury and 100 is complete control. A dash (−) response means no test result.

bermuda-grass = experiment: Test D bermudagrass; type: in vivo, Cynodon dactylon; conditions: Preemergence, 0 to 100 scale
Description: as §1, §2

common pursiane = experiment: Test D common purslane; type: in vivo, Portulaca oleracea
Description: as §1, §2

common ragweed = experiment: Test D common ragweed; type: in vivo, Ambrosia elatior; conditions: Preemergence, 0 to 100 scale
Description: as §1, §2

common groundsel = experiment: Test D common groundsel; type: in vivo, Senecio vulgaris; conditions: Preemergence, 0 to 100 scale
Outline: (§3)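 Greenhouse pots, sandy loam, single species per pot. Preemergence tests: soil-surface application ≤1 day after planting. Compound formulated in non-phytotoxic solvent with surfactant. Visual rating 14–21 DAT, scale 0–100.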

dallisgrass = experiment: Test D dallisgrass; type: in vivo, Paspalum dilatatum; conditions: Preemergence, 0 to 100 scale
Outline: as §3

guineagrass = experiment: Test D guineagrass; type: in vivo, Panicum maximum; conditions: Preemergence, 0 to 100 scale
Outline: as §3

itchgrass = experiment: Test D itchgrass; type: in vivo, Rottboellia exaltata; conditions: Preemergence, 0 to 100 scale
Outline: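 Scoring used a 0–100 visual injury scale, with 0 meaning no effect and 100 complete control, assessed 14–21 days after application alongside untreated pots. Preemergence treatments went onto sandy loam surfaces of separately potted seeds within a day of sowing.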

large crabgrass = experiment: Test D large crabgrass; type: in vivo, Digitaria sanguinalis; conditions: Preemergence, 0 to 100 scale
Outline: as §3

pitted morningglory = experiment: Test D pitted morningglory; type: in vivo, Ipomoea lacunosa; conditions: Preemergence, 0 to 100 scale
Description: as §1
as §2, with “Plant response ratings, summarized in Table C, are based on a 0 to 100 scale where 0 is no injury and 100 is complete control.” left out

purple nutsedge = experiment: Test D purple nutsedge; type: in vivo, Cyperus rotundus; conditions: Preemergence, 0 to 100 scale
Outline: as §3

sandbur = experiment: Test D sandbur; type: in vivo, Cenchrus echinatus; conditions: Preemergence, 0 to 100 scale
Outline: as §3

Spanishneedles = experiment: Test D Spanishneedles; type: in vivo, Bidens bipinnata; conditions: Preemergence, 0 to 100 scale
Description: as §1, §2

surinam grass = experiment: Test D surinam grass; type: in vivo, Brachiaria decumbens; conditions: Preemergence, 0 to 100 scale
Description: as §1, §2

tall mallow = experiment: Test D tall mallow; type: in vivo, Malva sylvestris; conditions: Preemergence, 0 to 100 scale
Description: as §1, §2

Green foxtail = experiment: Test D green foxtail; type: in vivo; conditions: Preemergence, 0 to 100 scale
Description: as §1, §2

[1] = Rate 32 g/ha, 0 no injury, 100 complete control
[2] = Rate 64 g/ha, 0 no injury, 100 complete control
[3] = Rate 125 g/ha, 0 no injury, 100 complete control

## Cc1ccccc1-n1c(=O)on(C(=O)N(c2ccccc2)C(C)C)c1=O [Compound 36]
Alexandergrass; Rate 500 g/ha
  Plant response rating, Alexandergrass: 98
bermuda-grass; Rate 500 g/ha
  Plant response rating, Bermudagrass: 100
Common pursiane; Rate 500 g/ha, Preemergence; 0 to 100 scale
  Plant response rating, C. purslane: 10
Common pursiane; Rate 500 g/ha; Preemergence; 0 to 100 scale
  Plant response rating, C. purslane: 0
Common ragweed; Rate 500 g/ha
  Plant response rating, C. ragweed: 10
Common groundsel; Rate 500 g/ha
  Plant response rating, Com. groundsel: 100
dallisgrass; Rate 500 g/ha
  Plant response rating, Dallisgrass: 100
guineagrass; Rate 500 g/ha
  Plant response rating, Guineagrass: 100
itchgrass; Rate 500 g/ha
  Plant response rating, Itchgrass: 80
Large crabgrass; Rate 500 g/ha
  Plant response rating Large crabgrass: 100
Pitted morningglory; Rate 500 g/ha
  Plant response rating, P. morninglory: 0
Purple nutsedge; Rate 500 g/ha
  Plant response rating, Purple nutsedge: 0
sandbur; Rate 500 g/ha
  Plant response rating, Sandbur: 100
Spanishneedles; Rate 500 g/ha
  Plant response rating, Spanishneedles: 10
Surinam grass; Rate 500 g/ha
  Plant response rating Surinam grass: 85
Tall mallow; Rate 500 g/ha
  Plant response rating, Tall Mallow: 0
Green foxtail; Rate 500 g/ha
  Plant response rating, Green foxtail: 100

## CCc1ccccc1-n1c(=O)on(C(=O)N(c2ccc(F)cc2)C(C)C)c1=O [Compound 34]
Alexandergrass; [1]
  Plant response rating, Alexandergrass: 0
Alexandergrass; [2]
  Plant response rating, Alexandergrass: 20
Alexandergrass; [3]
  Plant response rating, Alexandergrass: 30
Alexandergrass; Rate 250 g/ha
  Plant response rating, Alexandergrass: 60
bermuda-grass; [1]
  Plant response rating, Bermudagrass: 85
bermuda-grass; [2]
  Plant response rating, Bermudagrass: 98
bermuda-grass; [3]
  Plant response rating, Bermudagrass: 100
bermuda-grass; Rate 250 g/ha
  Plant response rating, Bermudagrass: 100
Common pursiane; Rate 32 g/ha; Preemergence; 0 to 100 scale, 0 no injury, 100 complete control
  Plant response rating, C. purslane: 0
Common pursiane; Rate 125 g/ha, Preemergence; 0 to 100 scale, 0 no injury, 100 complete control
  Plant response rating, C. purslane: 0
Common pursiane; Rate 250 g/ha; Preemergence; 0 to 100 scale
  Plant response rating, C. purslane: 0
Common ragweed; [1]
  Plant response rating, C. ragweed: 0
Common ragweed; [2]
  Plant response rating, C. ragweed: 0
Common ragweed; [3]
  Plant response rating, C. ragweed: 0
Common ragweed; Rate 250 g/ha
  Plant response rating, C. ragweed: 0
Common groundsel; [1]
  Plant response rating, Com. groundsel: 0
Common groundsel; [2]
  Plant response rating, Com. groundsel: 0
Common groundsel; [3]
  Plant response rating, Com. groundsel: 0
Common groundsel; Rate 250 g/ha
  Plant response rating, Com. groundsel: 0
dallisgrass; [1]
  Plant response rating, Dallisgrass: 0
dallisgrass; [2]
  Plant response rating, Dallisgrass: 80
dallisgrass; [3]
  Plant response rating, Dallisgrass: 98
dallisgrass; Rate 250 g/ha
  Plant response rating, Dallisgrass: 100
guineagrass; [1]
  Plant response rating, Guineagrass: 30
guineagrass; [2]
  Plant response rating, Guineagrass: 80
guineagrass; [3]
  Plant response rating, Guineagrass: 85
guineagrass; Rate 250 g/ha
  Plant response rating, Guineagrass: 98
itchgrass; [1]
  Plant response rating, Itchgrass: 0
itchgrass; [2]
  Plant response rating, Itchgrass: 0
itchgrass; [3]
  Plant response rating, Itchgrass: 0
itchgrass; Rate 250 g/ha
  Plant response rating, Itchgrass: 20
Large crabgrass; [1]
  Plant response rating Large crabgrass: 85
Large crabgrass; [2]
  Plant response rating Large crabgrass: 98
Large crabgrass; [3]
  Plant response rating Large crabgrass: 100
Large crabgrass; Rate 250 g/ha
  Plant response rating Large crabgrass: 100
Pitted morningglory; [1]
  Plant response rating, P. morninglory: 0
Pitted morningglory; [2]
  Plant response rating, P. morninglory: 0
Pitted morningglory; [3]
  Plant response rating, P. morninglory: 0
Pitted morningglory; Rate 250 g/ha
  Plant response rating, P. morninglory: 0
Purple nutsedge; [1]
  Plant response rating, Purple nutsedge: 0
Purple nutsedge; [2]
  Purple nutsedge plant response rating: 0
Purple nutsedge; [3]
  Purple nutsedge plant response rating: 0
Purple nutsedge; Rate 250 g/ha
  Plant response rating, Purple nutsedge: 0
sandbur; [1]
  Plant response rating, Sandbur: 0
sandbur; [2]
  Sandbur plant response rating: 0
sandbur; [3]
  Sandbur plant response rating: 30
sandbur; Rate 250 g/ha
  Plant response rating, Sandbur: 40
Spanishneedles; [1]
  Plant response rating, Spanishneedles: 0
Spanishneedles; [2]
  Spanishneedles plant response rating: 0
Spanishneedles; [3]
  Spanishneedles plant response rating: 0
Surinam grass; [1]
  Plant response rating Surinam grass: 0
Surinam grass; [2]
  Surinam grass plant response rating: 0
Surinam grass; [3]
  Surinam grass plant response rating: 0
Surinam grass; Rate 250 g/ha
  Plant response rating Surinam grass: 20
Tall mallow; [1]
  Plant response rating, Tall Mallow: 0
Tall mallow; [2]
  Tall Mallow plant response rating: 0
Tall mallow; [3]
  Tall Mallow plant response rating: 0
Tall mallow; Rate 250 g/ha
  Plant response rating, Tall Mallow: 0
Green foxtail; [1]
  Plant response rating, Green foxtail: 0
